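Briefly, cells in 96-well plates were exposed to five compound concentrations for 48 h, and endpoints were estimated by linear interpolation. GI50 marks 50% less growth. At the TGI there is no net growth.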
Assays:
Experiment in all cases: NCI anticancer screen, dose series, 48 h
HCT-15 colon = tested on: HCT-15 colon
SR leukemia = tested on: SR leukemia
A498 renal = tested on: A498 renal
K-562 leukemia = tested on: K-562 leukemia
SF-539 CNS = tested on: SF-539 CNS
SF-295 CNS = tested on: SF-295 CNS
OVCAR-4 ovarian = tested on: OVCAR-4 ovarian
NCI-H522 lung = tested on: NCI-H522 lung
OVCAR-3 ovarian = tested on: OVCAR-3 ovarian
MDA-MB-435 = tested on: MDA-MB-435
RPMI-8226 leukemia = tested on: RPMI-8226 leukemia
OVCAR-5 ovarian = tested on: OVCAR-5 ovarian
SK-MEL-5 melanoma = tested on: SK-MEL-5 melanoma
CCRF-CEM leukemia = tested on: CCRF-CEM leukemia
NCI-H23 lung = tested on: NCI-H23 lung
OVCAR-8 ovarian = tested on: OVCAR-8 ovarian
UACC-62 melanoma = tested on: UACC-62 melanoma
NCI-H226 lung = tested on: NCI-H226 lung
SN12C renal = tested on: SN12C renal
MCF7 breast = tested on: MCF7 breast
HOP-62 NSCLC = tested on: HOP-62 NSCLC
MDA-MB-231 breast = tested on: MDA-MB-231 breast
UO-31 renal = tested on: UO-31 renal
TK-10 renal = tested on: TK-10 renal
A549 NSCLC = tested on: A549 NSCLC
U251 CNS = tested on: U251 CNS
SNB-75 CNS = tested on: SNB-75 CNS
KM12 colon = tested on: KM12 colon
SK-MEL-28 melanoma = tested on: SK-MEL-28 melanoma
DU-145 prostate = tested on: DU-145 prostate
UACC-257 melanoma = tested on: UACC-257 melanoma
RXF 393 renal = tested on: RXF 393 renal
HL-60(TB) leukemia = tested on: HL-60(TB) leukemia
HCT-116 colon = tested on: HCT-116 colon
HT29 colon = tested on: HT29 colon
CAKI-1 renal = tested on: CAKI-1 renal
HS 578T breast = tested on: HS 578T breast
T-47D breast = tested on: T-47D breast
BT-549 breast = tested on: BT-549 breast
SF-268 CNS = tested on: SF-268 CNS
MALME-3M melanoma = tested on: MALME-3M melanoma
ACHN renal = tested on: ACHN renal
LOX IMVI melanoma = tested on: LOX IMVI melanoma
MOLT-4 leukemia = tested on: MOLT-4 leukemia
SW-620 colon = tested on: SW-620 colon
M14 melanoma = tested on: M14 melanoma
NCI-H460 lung = tested on: NCI-H460 lung
IGROV1 ovarian = tested on: IGROV1 ovarian
PC-3 prostate = tested on: PC-3 prostate
HOP-92 NSCLC = tested on: HOP-92 NSCLC
NCI/ADR-RES ovarian = tested on: NCI/ADR-RES ovarian
SNB-19 CNS = tested on: SNB-19 CNS
COLO 205 colon = tested on: COLO 205 colon
HCC-2998 colon = tested on: HCC-2998 colon
786-0 renal = tested on: 786-0 renal
SK-OV-3 ovarian = tested on: SK-OV-3 ovarian

N#Cc1c2ccccc2c2n1-c1ccccc1OC(c1ccccc1)C2=O (configuration not stated)
GI50 (HCT-15 colon): 3.12 µM
TGI (HCT-15 colon): 12.5 µM
GI50 (SR leukemia): 3.69 µM
TGI (SR leukemia): 15.6 µM
GI50 (A498 renal): 1.84 µM
TGI (A498 renal): 6.89 µM
GI50 (K-562 leukemia): 3.19 µM
TGI (K-562 leukemia): 13.9 µM
GI50 (SF-539 CNS): 4.29 µM
TGI (SF-539 CNS): 16.8 µM
GI50 (SF-295 CNS): 3.42 µM
TGI (SF-295 CNS): 34.4 µM
GI50 (OVCAR-4 ovarian): 2.43 µM
TGI (OVCAR-4 ovarian): 8.44 µM
GI50 (NCI-H522 lung): 2.06 µM
TGI (NCI-H522 lung): 4.72 µM
GI50 (OVCAR-3 ovarian): 5.1 µM
TGI (OVCAR-3 ovarian): 49.7 µM
GI50 (MDA-MB-435): 2.88 µM
TGI (MDA-MB-435): 9.19 µM
GI50 (RPMI-8226 leukemia): 2.75 µM
TGI (RPMI-8226 leukemia): 9.07 µM
GI50 (OVCAR-5 ovarian): 5.37 µM
TGI (OVCAR-5 ovarian): 34 µM
GI50 (SK-MEL-5 melanoma): 1.86 µM
TGI (SK-MEL-5 melanoma): 3.87 µM
GI50 (CCRF-CEM leukemia): 2.66 µM
TGI (CCRF-CEM leukemia): 10.9 µM
GI50 (NCI-H23 lung): 2.95 µM
TGI (NCI-H23 lung): 15 µM
GI50 (OVCAR-8 ovarian): 3.26 µM
TGI (OVCAR-8 ovarian): 15.7 µM
GI50 (UACC-62 melanoma): 3.81 µM
TGI (UACC-62 melanoma): 18 µM
GI50 (NCI-H226 lung): 3.09 µM
TGI (NCI-H226 lung): 11.7 µM
GI50 (SN12C renal): 3.48 µM
TGI (SN12C renal): 14.9 µM
GI50 (MCF7 breast): 3.8 µM
TGI (MCF7 breast): 14.6 µM
GI50 (HOP-62 NSCLC): 3.84 µM
TGI (HOP-62 NSCLC): 15.8 µM
GI50 (MDA-MB-231 breast): 2.78 µM
TGI (MDA-MB-231 breast): 8.99 µM
GI50 (UO-31 renal): 3.19 µM
TGI (UO-31 renal): 12 µM
GI50 (TK-10 renal): 4.9 µM
TGI (TK-10 renal): 20.7 µM
GI50 (A549 NSCLC): 3.11 µM
TGI (A549 NSCLC): 29.3 µM
GI50 (U251 CNS): 3.17 µM
TGI (U251 CNS): 15.7 µM
GI50 (SNB-75 CNS): 2.23 µM
TGI (SNB-75 CNS): 11.9 µM
GI50 (KM12 colon): 3.32 µM
TGI (KM12 colon): 10.8 µM
GI50 (SK-MEL-28 melanoma): 8.67 µM
TGI (SK-MEL-28 melanoma): 27.5 µM
GI50 (DU-145 prostate): 6.1 µM
TGI (DU-145 prostate): 26.3 µM
GI50 (UACC-257 melanoma): 3.82 µM
TGI (UACC-257 melanoma): 17.6 µM
GI50 (RXF 393 renal): 3.15 µM
TGI (RXF 393 renal): 9.55 µM
GI50 (HL-60(TB) leukemia): 2.83 µM
TGI (HL-60(TB) leukemia): 6.03 µM
GI50 (HCT-116 colon): 2.84 µM
TGI (HCT-116 colon): 12.4 µM
GI50 (HT29 colon): 4.1 µM
TGI (HT29 colon): 14 µM
GI50 (CAKI-1 renal): 3.16 µM
TGI (CAKI-1 renal): 13.7 µM
GI50 (HS 578T breast): 3.53 µM
TGI (HS 578T breast): 37 µM
GI50 (T-47D breast): 3.28 µM
TGI (T-47D breast): 15.6 µM
GI50 (BT-549 breast): 2.84 µM
TGI (BT-549 breast): 7.76 µM
GI50 (SF-268 CNS): 3.73 µM
TGI (SF-268 CNS): 19.7 µM
GI50 (MALME-3M melanoma): 11.7 µM
TGI (MALME-3M melanoma): 30.6 µM
GI50 (ACHN renal): 3.73 µM
TGI (ACHN renal): > 100 µM
GI50 (LOX IMVI melanoma): 2.45 µM
TGI (LOX IMVI melanoma): 6.82 µM
GI50 (MOLT-4 leukemia): 4.47 µM
TGI (MOLT-4 leukemia): 19.6 µM
GI50 (SW-620 colon): 3.9 µM
TGI (SW-620 colon): 16.7 µM
GI50 (M14 melanoma): 3.89 µM
TGI (M14 melanoma): 17.4 µM
GI50 (NCI-H460 lung): 3.69 µM
TGI (NCI-H460 lung): 18.8 µM
GI50 (IGROV1 ovarian): 4.37 µM
TGI (IGROV1 ovarian): 19.2 µM
GI50 (PC-3 prostate): 2.77 µM
TGI (PC-3 prostate): 13.5 µM
GI50 (HOP-92 NSCLC): 2.01 µM
TGI (HOP-92 NSCLC): 5.88 µM
GI50 (NCI/ADR-RES ovarian): 3.2 µM
TGI (NCI/ADR-RES ovarian): 12 µM
GI50 (SNB-19 CNS): 4.25 µM
TGI (SNB-19 CNS): > 100 µM
GI50 (COLO 205 colon): 4.67 µM
TGI (COLO 205 colon): 16.4 µM
GI50 (HCC-2998 colon): 15.5 µM
TGI (HCC-2998 colon): 85.8 µM
GI50 (786-0 renal): 4.91 µM
TGI (786-0 renal): 23 µM
GI50 (SK-OV-3 ovarian): 6.03 µM
TGI (SK-OV-3 ovarian): 48.6 µM
